Experimental data taken from patent publication US12251383B2, “Methods and compositions for KRAS inhibitors” (The Board of Regents of the University of Texas System, priority 2019, dated 2025).
Entries after “also recorded” stand apart in the source; their conditions may differ. Where two headings read alike, the source gives them in different places.

Tests used:
HRAS^G12V = experiment: Cell signaling (Western) in BHK cells expressing HRAS G12V; format: cell-based, hamster
Description: (§1) Cell signaling. The inhibitory potential of compounds was tested in monoclonal Baby Hamster Kidney (BHK) cell lines stably expressing monomeric green fluorescence protein (mGFP)-tagged KRAS^G12D, K-Ras^G12V and HRAS^G12V. Cells were cultured in Dulbecco's Modified Eagle Medium (DMEM, Hyclone) supplemented with 10% v/v bovine calf serum and incubated with compound or vehicle (DMSO) for 3 h without serum. Cells were then harvested in lysis buffer (50 mM Tris (pH 7.5), 75 mM NaCl, 25 mM NaF, 5 mM MgCl2, 5 mM EGTA, 1 mM dithiothreitol, 100 μM NaVO4, 1% Nonidet P40 plus protease inhibitors) and subjected to Western analysis controlling protein loading by BCA (bicinchoninic acid) assay. Lysates were resolved with Bio-Rad polyacrylamide TGX 10% gel, transferred to polyvinylidene fluoride (PVDF) membrane and immunoblotted using pan-AKT (2920S), GFP (2956S), pAKT^S473 (4060L), p-cRaf^S338 (9427S), p-ERK^T202/Y204 (4370L), ERK1/2 (4695S) or β-actin antibodies (Cell Signaling Technology). IC50 values were calculated with Prism 4-parameter fit.

Rap1B = Rap1B (Homo sapiens, UniProt P61224); experiment: MST binding, control Rap1B; details: control small GTPase
Text: FIGS. 1A-1D show representative data for the predicted binding mode and measured affinity of disclosed compound 11 to KRAS. (FIG. 1A) Structure of the catalytic domain of KRAS used for the virtual screening. Lobe1 (residues 1-86) and lobe2 (residues 87-166) are highlighted in different colors, as well as switches 1 (residues 30-40) and 2 (residues 60-75). The location of the target allosteric pocket p1 is indicated. (FIG. 1B) Chemical structure of compound 11. (FIG. 1C) Predicted binding pose of compound 11, with the key residues that make polar or vdW contacts with the ligand labeled. (FIG. 1D) Microscale thermophoresis (MST) experiments indicating direct binding of compound 11 to KRAS, along with dissociation constants (KD) derived from the curves. Changes in fluorescence upon titration of […] KRAS with increasing concentration of compound are shown: KRAS^WT (red), KRAS^G12C (green), KRAS^G12D (purple) and KRAS^Q61M (blue), each bound to the non-hydrolyzable GTP analogue, guanylyl imidodiphosphate (GNP). The same experiments indicated no binding to GDP-bound KRAS^G12D and KRAS^WT as well as Rap1B, which was used as control. […]

[1] = test system: RASless MEF cells expressing BRAF V600E; experiment: Proliferation of RASless MEF cells expressing BRAF V600E; format: cell-based; details: Mus musculus, normalized to DMSO control, 3 measurements, read-out: IC50 for inhibition of proliferation
Description: Cell numbers were averaged from 3 independent measurements and normalized with respect to DMSO control. Assays were conducted as described in McCarthy et al, (ACS Omega2019, 4, 2, 2921-2930).

[2] = target: KRAS^Q61H in the GTP state (Homo sapiens, UniProt P01116, Q61H); experiment: MST binding, GTP-state KRAS Q61H
lung cancer cells = experiment: Cell proliferation (CyQuant), lung cancer cells overall; format: cell-based
Text: (FIG. 5A) Chemical structure of compounds 12, an analogue of 11 lacking the terminal methyl alcohol functional group. (FIG. 5B) Predicted binding pose of compound 12. (FIG. 5C) p-ERK and p-cRaf levels in BHK cells expressing KRAS^G12D treated with indicated concentrations of compound 12 or vehicle. (FIG. 5D) Proliferation profile of lung cancer cells upon treatment with increasing concentration of compound 12, monitored by a CyQuant assay. Data are averages over three independent experiments and error bars represent standard error. (FIG. 5E) GFP fluorescence lifetime from FLIM-FRET using cells expressing GFP-KRAS^G12D alone or together with RFP-cRaf, with or without treatment with 2 μM compound 12.
Cell proliferation. Potential effect of the ligands on cancer cell proliferation was tested in three lung cancer cells: SKLU-1, H1975 and H522. Cells were plated at ˜1,000 cell per well in a 96-well plate and maintained in full serum media with or without compound at 37° C. for 72 h changing the media with the compound every 24 h. Media with compound was prepared by serial dilution at concentrations indicated. Then cells were washed with PBS and frozen at −80° C. for a minimum of 24 h. Plates were thawed and CyQuant™ dye (in lysis buffer provided in the CyQuant™ cell proliferation assay kit, Invitrogen™) was added, and after a five-minute incubation, fluorescence (excitation: 480 nm emission: 520 nm) was measured with a Tecan Infinite M200 plate reader.

KRAS^G12D = experiment: Cell signaling (Western) in BHK cells expressing KRAS G12D; format: cell-based, hamster; details: for IC50: Mesocricetus auratus, BHK, 3 h
Description: as §1
Cell signaling assays identify compound 11 as a promising initial hit Western analysis was used to quickly assess the potential impact of the predicted hits on MAPK signaling, a major pathway mediated by KRAS. Specifically, ERK1/2 phosphorylation levels (p-ERK) were monitored in BHK cells stably expressing KRAS^G12D treated with vehicle (DMSO), the MEK inhibitor […] (U) or compound at four different concentrations (1-100 μM). […] Compounds 9 and 11 (structures for compounds 1-11 are provided in Appendix I, attached hereto), on the other hand, decreased p-ERK levels at concentrations ≥50 μM and ≥5 μM, respectively. To verify the latter observation, the experiments were repeated in an expanded concentration range starting from 0.1 μM. […] However, compound 9 (see Appendix I, attached hereto) increased p-ERK levels at 25 and 38 μM in contrast to the decrease observed at higher concentrations (FIG. S1B; see Appendix I, attached hereto).

KRAS = experiment: MST affinity for KRAS (G12D and other KRAS mutants); format: binding, human; details: MST KD

Rap1B, sequence (P61224 whole entry, species assumed, the tested form may be a part): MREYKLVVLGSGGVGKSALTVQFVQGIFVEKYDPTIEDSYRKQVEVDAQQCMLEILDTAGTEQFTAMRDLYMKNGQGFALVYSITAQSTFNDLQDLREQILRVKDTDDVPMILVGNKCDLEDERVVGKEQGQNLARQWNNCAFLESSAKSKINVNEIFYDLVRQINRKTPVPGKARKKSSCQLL
KRAS^Q61H in the GTP state, sequence (P01116 1-188 isoform P01116-2 Q61H): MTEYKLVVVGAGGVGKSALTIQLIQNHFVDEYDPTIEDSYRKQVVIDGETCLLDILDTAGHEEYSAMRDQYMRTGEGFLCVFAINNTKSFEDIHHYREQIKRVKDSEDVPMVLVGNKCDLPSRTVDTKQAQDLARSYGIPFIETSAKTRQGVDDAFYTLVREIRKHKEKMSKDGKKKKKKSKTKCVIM

SMILES	effect on p-AKT levels (HRAS^G12V)	effect on p-ERK levels (HRAS^G12V)	effect on p-cRaf levels (HRAS^G12V)	binding (in words) (Rap1B)	IC50 [1]	Kd [2]	selectivity between KRAS mutant and KRAS^WT lung cancer cells (lung cancer cells)	concentration at which p-ERK levels are decreased (KRAS^G12D; BHK KRAS^G12D)	effect on p-ERK levels (KRAS^G12D; BHK KRAS^G12D)	effect on p-cRaf levels (KRAS^G12D; BHK KRAS^G12D)	reduction of p-ERK levels (KRAS^G12D; BHK KRAS^G12D, at 5 μM)	IC50 (KRAS^G12D; read-out: IC50 for p-ERK)	IC50 (KRAS^G12D; read-out: IC50 for p-cRaf)	weaker affinity for KRAS than compound 11 (KRAS)
Cc1nn2c(N3CCN(CCO)CC3)cc(-c3ccccc3)nc2c1-c1ccccc1 [Compound 11, 2-[4-(8-methyl-3,9-diphenyl-2,6,7-triazabicyclo[4.3.0]nona-2,4,7,9-tetraen-5-yl)piperazin-1-yl]ethanol]	no major effect	not and no significant effect	not and no significant effect	no binding	1680 ± 170 nM	400 to 700 nM	no significant difference	≥ 5 µM	dose-dependently reduced; also recorded: dose-dependently decreases	dose-dependently reduced; also recorded: dose-dependently decreases	~50%	1300 nM	700 nM	
Cc1cc(N2CCN(CCO)CC2)n2nc(C)c(-c3ccccc3)c2n1 [Compound 13]														6.5-7.1 fold
